Experimental data reported in patent US11465983B2, “USP7 inhibitors for treating multiple myeloma” (Dana-Farber Cancer Institute, Inc., priority 2017, dated 2022).
pIC50, pKd: −log10 of the molar value.

Key:
USP7 [1] = molecular target: T1, USP7 (Homo sapiens, UniProt Q93009); experiment: Ub-AMC assay (USP7 assay); format: biochemical; design: fused on or other part: His tag from pET28aLIC; removed by thrombin for the catalytic domain, no removal step given for the full length; details: USP7 assay
Description: USP7 and mutants were tested for their activity in Ubiquitin-AMC assay in presence or absence of inhibitors. […] For the same assay USP7 full length WT and Q351 mutant were used at 50 nM. […] The reaction was incubated 30 min at room temperature prior to the addition of 2 uM Ubiquitin-AMC (Boston Biochem) substrate. […] The calculated initial rate values were plotted against inhibitor concentrations to determine IC50s. All the experimental data were plotted using Prism GraphPad. FIG. 2A illustrates the structure guided optimization for the inhibition of USP7.
ND refers to not disclosed.
Target sequence in this assay (Q93009 208-560 limits assumed): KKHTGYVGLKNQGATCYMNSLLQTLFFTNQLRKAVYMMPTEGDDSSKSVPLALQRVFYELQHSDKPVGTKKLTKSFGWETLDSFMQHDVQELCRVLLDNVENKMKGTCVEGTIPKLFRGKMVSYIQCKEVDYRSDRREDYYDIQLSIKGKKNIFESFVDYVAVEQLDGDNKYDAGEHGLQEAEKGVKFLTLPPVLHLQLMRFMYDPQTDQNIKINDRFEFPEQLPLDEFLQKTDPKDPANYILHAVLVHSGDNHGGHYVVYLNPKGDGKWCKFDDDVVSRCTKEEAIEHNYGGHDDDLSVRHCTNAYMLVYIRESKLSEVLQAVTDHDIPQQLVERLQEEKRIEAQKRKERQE

USP7 [2] = molecular target: T1, USP7; experiment: Isothermal titration calorimetry, binding affinity of protein/ligand; design: made in house; host or cells: E. coli BL21 (DE3); details: ITC at 20° C.
Description: The binding affinity of protein/ligand was measured by adding 0.02 mM protein in cell and titrating with 0.2 mM ligand in the syringe using an Auto-ITC200 microcalorimeter (Malvern) at 20° C. (FIG. 2C). Proteins and ligands were prepared within ITC buffer containing 20 mM HEPES pH 7.5, 150 mM NaCl, and 2% DMSO. The data were fit using Origin 7.0 software.
Target sequence in this assay (Q93009 whole entry, the tested form may be a part): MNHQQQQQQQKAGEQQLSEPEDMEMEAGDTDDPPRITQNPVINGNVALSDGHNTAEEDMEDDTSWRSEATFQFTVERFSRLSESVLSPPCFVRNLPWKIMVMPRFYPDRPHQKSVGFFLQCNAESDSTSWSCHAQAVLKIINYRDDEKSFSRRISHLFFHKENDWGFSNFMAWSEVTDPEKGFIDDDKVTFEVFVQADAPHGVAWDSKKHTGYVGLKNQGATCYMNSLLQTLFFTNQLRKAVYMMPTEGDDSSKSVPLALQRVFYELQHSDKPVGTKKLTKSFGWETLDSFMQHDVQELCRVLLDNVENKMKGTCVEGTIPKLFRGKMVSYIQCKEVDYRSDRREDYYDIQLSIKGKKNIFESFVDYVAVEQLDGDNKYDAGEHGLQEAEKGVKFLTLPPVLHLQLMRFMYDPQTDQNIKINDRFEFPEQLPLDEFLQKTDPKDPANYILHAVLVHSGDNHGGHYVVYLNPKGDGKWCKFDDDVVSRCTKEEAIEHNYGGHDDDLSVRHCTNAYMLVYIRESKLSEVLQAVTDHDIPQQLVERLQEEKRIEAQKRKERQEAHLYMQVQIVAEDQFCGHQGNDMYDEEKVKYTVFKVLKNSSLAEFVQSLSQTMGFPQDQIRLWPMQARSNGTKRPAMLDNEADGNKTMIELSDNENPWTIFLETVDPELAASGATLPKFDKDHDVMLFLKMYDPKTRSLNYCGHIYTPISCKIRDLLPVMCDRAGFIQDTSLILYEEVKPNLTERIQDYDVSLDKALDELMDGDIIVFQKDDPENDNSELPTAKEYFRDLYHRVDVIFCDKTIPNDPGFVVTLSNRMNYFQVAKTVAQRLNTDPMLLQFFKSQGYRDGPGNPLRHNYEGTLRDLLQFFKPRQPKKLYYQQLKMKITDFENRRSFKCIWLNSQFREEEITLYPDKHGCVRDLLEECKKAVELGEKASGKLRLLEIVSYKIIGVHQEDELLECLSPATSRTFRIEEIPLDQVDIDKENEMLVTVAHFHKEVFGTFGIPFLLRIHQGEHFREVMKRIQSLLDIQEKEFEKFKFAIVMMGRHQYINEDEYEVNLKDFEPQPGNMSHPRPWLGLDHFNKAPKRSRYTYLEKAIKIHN

[3] = test system: HDM2, p53 and p21 protein levels in MCF7 cells; experiment: Immunoblot of HDM2, p53 and p21 protein levels in treated cells; format: cell-based; details: 16 hours, FIG. 6A
Description: MCF7 and MM.1S were grown in RPMI supplemented with 10% Fetal Bovine serum (FBS) and antibiotics. Cells were treated with DMSO or different concentrations of compounds 10 and 11 for 6 (MM1S) or 16 (MCF7) hours in presence or absence of cycloheximide. For the experiments in which cycloheximide was used, cells were treated with compounds for 4 (MM1S) or 14 (MCF7) hours prior to the addition of 50 ug/ml of cycloheximide. At 6 or 16 h time point cells were washed in PBS and lysed in modified RIPA buffer (1% Triton X-100, 1% sodium deoxycholate, 0.1% SDS, 20 mM Tris, 150 mM NaCl, 1 mM EDTA) containing phosphatase inhibitor cocktails 1 and 2 (Sigma), and protease inhibitors. Protein concentrations were quantified using the BCA protein assay kit (Pierce) and samples were probed by immunoblotting using mdm2 (santa cruz sc-965), p53 (cell signaling 9282), p21 (cell signaling 2947), GAPDH (cell signaling 2118), USP7 (cell signaling 4833) antibodies (FIGS. 6A-D).

Row | pIC50 (USP7 [1]) | Structure (SMILES) | further results
1 | < 5.00 | O=C(Cc1ccccc1)N1CCC(O)(Cn2cnc3cc(Cl)ccc3c2=O)CC1 [Compound 7, 7-Chloro-3-((4-hydroxy-1-(2-phenylacetyl)piperidin-4-yl)methyl)quinazolin-4(3H)-one] | Kd (μM) (USP7 [2]; 0.02 mM protein, 0.2 mM ligand): No binding
2 | > 6.70 | CC(CC(=O)N1CCC(O)(Cn2cnc3cc(Cl)ccc3c2=O)CC1)c1ccccc1 (stereo not drawn) [Compound 8, 7-Chloro-3-((4-hydroxy-1-(3-phenylbutanoyl)piperidin-4-yl)methyl)quinazolin-4(3H)-one] | DH (USP7 [2]): -3.9 kcal/mol; DS (cal/mol•K) (USP7 [2]): 13.1 cal/mol•K; n (stoichiometry) (USP7 [2]): 2.46; pKd (USP7 [2]; 0.02 mM protein, 0.2 mM ligand): 5.74
3 | > 6.70 | C[C@@H](CC(=O)N1CCC(O)(Cn2cnc3cc(Cl)ccc3c2=O)CC1)c1ccccc1 [Compound 9, (S)-7-Chloro-3-((4-hydroxy-1-(3-phenylbutanoyl)piperidin-4-yl)methyl)quinazolin-4(3H)-one] | DH (USP7 [2]): -13.5 kcal/mol; DS (cal/mol•K) (USP7 [2]): −17.3 cal/mol•K; n (stoichiometry) (USP7 [2]): 0.96; pKd (USP7 [2]; 0.02 mM protein, 0.2 mM ligand): 6.10
4 | < 5.00 | O=C([C@H]1C[C@@H]1c1ccccc1)N1CCC(O)(Cn2cnc3cc(Cl)ccc3c2=O)CC1 [Compound 75] | –
5 | < 5.00 | CC(C)(C)C(=O)N1CCC(O)(Cn2cnc3cc(Cl)ccc3c2=O)CC1 [Compound 76] | –
6 | < 5.00 | O=c1c2ccc(Cl)cc2ncn1CC1(O)CCN(c2cccnc2)CC1 [Compound 77] | –
7 | < 5.00 | O=c1c2ccc(Cl)cc2ncn1CC1(O)CCN(c2ccc([N+](=O)[O-])cn2)CC1 [Compound 78] | –
8 | < 5.00 | CN(CC(=O)N1CCC(O)(Cn2cnc3cc(Cl)ccc3c2=O)CC1)c1ccccc1 [Compound 79] | –
9 | < 5.00 | CCN(CC(=O)N1CCC(O)(Cn2cnc3cc(Cl)ccc3c2=O)CC1)c1ccccc1 [Compound 80] | –
10 | < 5.00 | O=C(C1Cc2ccccc2C1)N1CCC(O)(Cn2cnc3cc(Cl)ccc3c2=O)CC1 [Compound 81] | –
11 | 5.00 to 6.00 | O=C(CC(c1ccccc1)c1ccccc1)N1CCC(O)(Cn2cnc3cc(Cl)ccc3c2=O)CC1 [Compound 82] | –
12 | < 5.00 | O=c1c2ccc(Cl)cc2ncn1CC1(O)CCN(c2cc([N+](=O)[O-])ccn2)CC1 [Compound 83] | –
13 | 5.00 to 6.00 | O=C(NCCCC(=O)N1CCC(O)(Cn2cnc3cc(Cl)ccc3c2=O)CC1)c1ccc2c(Cl)c3c(nc2c1)CCCC3 [Compound 84] | –
14 | < 5.00 | O=C(NCCCn1cnc2cc(Cl)ccc2c1=O)c1ccc2c(Cl)c3c(nc2c1)CCCC3 [Compound 85] | –
15 | 6.00 to 6.70 | CC(=O)Nc1ccc2c(=O)n(CC3(O)CCN(C(=O)CC(C)c4ccccc4)CC3)cnc2c1 (stereo not drawn) [Compound 86] | –
16 | < 5.00 | COc1ccccc1CCC(=O)N1CCC(O)(Cn2cnc3cc(Cl)ccc3c2=O)CC1 [Compound 87] | –
17 | < 5.00 | O=C(CC1c2ccccc2-c2ccccc21)N1CCC(O)(Cn2cnc3cc(Cl)ccc3c2=O)CC1 [Compound 88] | –

Row | pIC50 (USP7 [1]) | Structure (SMILES) | further results
18 | < 5.00 | Cc1cccc(CCC(=O)N2CCC(O)(Cn3cnc4cc(Cl)ccc4c3=O)CC2)c1 [Compound 89] | –
19 | < 5.00 | CNC(=O)c1ccc2c(Cl)c3c(nc2c1)CCCC3 [Compound 90] | –
20 | 6.00 to 6.70 | CC(C)C(Cc1ccccc1)C(=O)N1CCC(O)(Cn2cnc3cc(Cl)ccc3c2=O)CC1 (stereo not drawn) [Compound 91] | –
21 | 5.00 to 6.00 | COC(Cc1ccccc1)C(=O)N1CCC(O)(Cn2cnc3cc(Cl)ccc3c2=O)CC1 (stereo not drawn) [Compound 92] | –
22 | 5.00 to 6.00 | CC(C(=O)N1CCC(O)(Cn2cnc3cc(Cl)ccc3c2=O)CC1)C(C)c1ccccc1 (stereo not drawn) [Compound 93] | –
23 | 5.00 to 6.00 | CCC(Cc1ccccc1)C(=O)N1CCC(O)(Cn2cnc3cc(Cl)ccc3c2=O)CC1 (stereo not drawn) [Compound 94] | –
24 | < 5.00 | O=C(C(Cc1ccccc1)c1ccccc1)N1CCC(O)(Cn2cnc3cc(Cl)ccc3c2=O)CC1 (stereo not drawn) [Compound 95] | –
25 | < 5.00 | O=C(NCC(=O)N1CCC(O)(Cn2cnc3cc(Cl)ccc3c2=O)CC1)c1ccc2c(Cl)c3c(nc2c1)CCCC3 [Compound 96] | –
26 | < 5.00 | O=C(CCc1ccc2c(Cl)c3c(nc2c1)CCCC3)NCCC(=O)N1CCC(O)(Cn2cnc3cc(Cl)ccc3c2=O)CC1 [Compound 97] | –
27 | 6.00 to 6.70 | O=C(NCCCCC(=O)N1CCC(O)(Cn2cnc3cc(Cl)ccc3c2=O)CC1)c1ccc2c(Cl)c3c(nc2c1)CCCC3 [Compound 98] | –
28 | 5.00 to 6.00 | O=C(N[C@@H](Cc1ccccc1)C(=O)N1CCC(O)(Cn2cnc3cc(Cl)ccc3c2=O)CC1)c1ccc2c(Cl)c3c(nc2c1)CCCC3 [Compound 99] | –
29 | < 5.00 | O=C(NCCCC(=O)N1CCC(Cn2cnc3cc(Cl)ccc3c2=O)CC1)c1ccc2c(Cl)c3c(nc2c1)CCCC3 [Compound 100] | –
30 | 6.00 to 6.70 | C[C@H](CC(=O)N1CCC(O)(Cn2cnc3cc(N)ccc3c2=O)CC1)c1ccccc1 [Compound 101] | –
31 | 6.00 to 6.70 | CC(=O)Nc1ccc2c(=O)n(CC3(O)CCN(C(=O)C[C@@H](C)c4ccccc4)CC3)cnc2c1 [Compound 102] | –
32 | 5.00 to 6.00 | C[C@H](CC(=O)N1CCC(O)(Cn2cnc3c(N)cccc3c2=O)CC1)c1ccccc1 [Compound 103] | –
33 | < 5.00 | CC(C)(C)C(=O)Nc1ccc2c(=O)n(CC3(O)CCN(C(=O)CCc4ccccc4)CC3)cnc2c1 [Compound 105] | –
34 | – | O=C(CCc1ccccc1)N1CCC(O)(Cn2cnc3cc(Cl)ccc3c2=O)CC1 [Compound A, reference compound] | DH (USP7 [2]): -5.4 kcal/mol; DS (cal/mol•K) (USP7 [2]): 5.3 cal/mol•K; n (stoichiometry) (USP7 [2]): 0.98; pKd (USP7 [2]; 0.02 mM protein, 0.2 mM ligand): 5.12

Row | Structure (SMILES) | pIC50 (USP7 [1]) | further results
35 | C[C@H](CC(=O)N1CCC(O)(Cn2cnc3cc(NC(=O)CCN4CCN(C)CC4)ccc3c2=O)CC1)c1ccccc1 [Compound 10, (R)—N-(3-((4-Hydroxy-1-(3-phenylbutanoyl)piperidin-4-yl)methyl)-4-oxo-3,4-dihydroquinazolin-7-yl)-3-(4-methylpiperazin-1-yl)propanamide] | > 6.70 | HDM2, p53 and p21 protein levels [3]: promotes loss HDM2 and accumulation of p53 and p21; DH (USP7 [2]): -15.1 kcal/mol; n (stoichiometry) (USP7 [2]): 1.06; pKd (USP7 [2]; 0.02 mM protein, 0.2 mM ligand): 6.98
